Assay results reported in PMC5572697, “A first-in-human study of the novel HIV-fusion inhibitor C34-PEG4-Chol” (Scientific Reports, 2017).
Entries after “also recorded” stand apart in the source; their conditions may differ. Where two headings read alike, the source gives them in different places.

Tests used:
Type in all cases: in vivo
HIV-positive men = test: First-in-human safety and injection site reaction (ISR) grading; conditions: for ISR grade: one participant
Experimental: Dosing was commenced at the lowest dose of 10 mg in a volume of 1 mL. Randomisation was undertaken using the InForm™ Integrated Trial Management system and was on a 1:1 basis, with no predefined stratifications. All clinical study staff were blinded. Clinical research pharmacists who were not part of the clinical research team, were not blinded in order to reconstitute study products. These members of the research pharmacy team had no involvement in the clinical care of participants during study procedures.
At all study time-points, participants were reviewed for ISRs, a symptom-directed physical examination was performed and blood samples were collected for full blood picture, electrolytes, liver enzymes, amylase and glucose. An electrocardiogram was performed pre-dose and 4 and 12 hours after dosing. A decision to proceed with dose escalation was made only after all four participants in each dose cohort had been observed for a minimum of 7 days for safety assessments. All safety data were reviewed by an independent data monitoring committee (IDMC).
Supplementary Information 1:
Table S1: List of injection site reactions (ISR) grading

dogs = test: Repeat-dose toxicity study in dogs; conditions: subcutaneous
Experimental: (§1) Pre-clinical toxicology studies were conducted in 2 species (rodent/mice and non-rodent/dogs). Multiple high doses of C34-PEG4-Chol, up to 12 mg/kg or 10 x the maximum proposed human dose, were administered daily in mice and twice weekly (the intended frequency in humans) in dogs for 14 days, with a 7-day recovery period for both species. […] Toxicology results were analysed independently by the Medicines and Healthcare Regulatory Authority (MHRA), UK before a decision was made to proceed with trial in humans.
(§2) Repeat-dose toxicity studies were conducted in mice (n = 20 at 6 mg/kg/day, n = 20 at 12 mg/kg/day) and dogs (n = 6 at 6 mg/kg/day, n = 6 at 12 mg/kg/day). The subcutaneous route of administration was selected for both species. The highest dose of 12 mg/kg/day was based on the maximal achievable dose with the formulation, and corresponded to 10x the maximum proposed human dose (80 mg, 1.15 mg/kg). No premature decedents occurred in either species. Following observation, animals were euthanised.

mice = test: Repeat-dose toxicity study in mice; conditions: subcutaneous
Experimental: as §1, §2

[1] = Repeat-dose toxicity study in mice; conditions: mouse, in vivo, sc, subcutaneous, daily for 14 days, 7-day recovery, read-out: No-observed-adverse-effect-level (NOAEL)
Experimental: as §1, §2

[2] = Human plasma pharmacokinetics after a single subcutaneous dose; set-up: Area under plasma-concentration-time-curve: unit not given here; conditions: for half-life / Cmax / Tmax / Vd: sc; for Cmax: LC-MS/MS, non-compartmental, read-out: Maximum observed concentration; for Tmax: read-out: Time to maximum observed concentration; for Vd: read-out: Volume of distribution; for Time-to-MEC (time plasma concentrations remained above the minimum effective concentration): assay cut-off 62.5 ng/mL used as surrogate
Experimental: Intensive pharmacokinetic sampling was performed over the first 24 hours subsequent to dosing with samples collected pre-dose, 0.5 h, 1 h, 2 h, 4 h, 6 h, 8 h, 12 h, 24 h. Thereafter pharmacokinetic sampling was undertaken on days 2, 3, 4, 7, 10, 14, 21 and 28. Plasma samples (100 µL) were extracted in 300 µL of acetonitrile containing 1% formic acid; vortexed and centrifuged at 4000 rpm for 10 minutes. The supernatant was transferred into autosampler vials, and 25 μL injected onto the LC-MS/MS. Quantitative analysis of C34-PEG4-Chol was performed by LC-MS/MS using a Thermo Quantum Access triple quadrupole mass spectrometer, interfaced with a heated electrospray ionisation (H-ESI) source (Thermo Fisher Scientific, Hemel Hempstead, UK). The HPLC system included a variable loop Accela autosampler and an Accela pump (ThermoScientific, Hemel Hempstead, UK). Chromatographic separation was achieved using a reverse-phase XBridge Peptide BEH C18 column (3.5 µm; 50 mm × 2.1 mm) (Waters Corporation, Milford, US) interfaced with a 2 µm C18 Quest column saver (Thermo Scientific, Hemel Hempstead, UK). The gradient mobile phase, consisting of a solvent A (0.1% formic acid in Water) and solvent B (0.1% formic acid in acetonitrile), was delivered at a flow rate of […]. Detection of C34-PEG4-Chol was performed in the pseudo Selected Reaction Monitoring mode, monitoring a triple charged molecular ion [M + 3 H]3 + at m/z 1756.8. The internal standard (quinoxaline), was monitored at m/z 313.1 → 246.1. Peak area ratios of compound to internal standard were utilized to construct a calibration curve with a weighting of 1/x2. Data acquisition and processing was performed using LCQuan software (Version 2.7, Thermo Scientific, Hemel Hempstead, UK). The assay calibration range was between 62.5–10,000 ng/mL; inter and intra-assay accuracy and precision at the assay limit of quantification (LLQ) fell within the designated ±20% of the nominal value, and were within ±15% for all QC levels.
Pharmacokinetic parameters were derived via non-compartmental modeling. The area-under-the-concentration-time-curve (AUC) was calculated following a single dose, assuming linear decrease over time, by linear trapezoidal method. The maximum concentration (Cmax) observed at each dose and the time-to-Cmax (Tmax) were calculated. The time to reach minimum effective concentration was assessed in order to determine the frequency of future dosing regimens. […] Given our assay cut-off was 62.5 ng/mL, our assay cut off was used as a surrogate for the IC90.

[3] = human, in vivo, 10 mg, participant 1, single SC 10 mg
[4] = human, in vivo, 10 mg, participant 3, single SC 10 mg
[5] = human, in vivo, 20 mg, participant 5, single SC 20 mg

With `CC[C@H](C)[C@H](NC(=O)[C@H](CC(C)C)NC(=O)[C@H](CO)NC(=O)[C@H](Cc1c[nH]cn1)NC(=O)[C@@H](NC(=O)[C@H](CC(C)C)NC(=O)[C@H](CO)NC(=O)[C@@H](NC(=O)[C@H](Cc1ccc(O)cc1)NC(=O)[C@H](CC(N)=O)NC(=O)[C@H](CC(N)=O)NC(=O)[C@@H](NC(=O)[C@H](CCC(=O)O)NC(=O)[C@H](CCCNC(=N)N)NC(=O)[C@H](CC(=O)O)NC(=O)[C@H](Cc1c[nH]c2ccccc12)NC(=O)[C@H](CCC(=O)O)NC(=O)[C@H](CCSC)NC(=O)[C@H](Cc1c[nH]c2ccccc12)NC(C)=O)[C@@H](C)CC)[C@@H](C)O)[C@@H](C)CC)C(=O)N[C@@H](CCC(=O)O)C(=O)N[C@@H](CCC(=O)O)C(=O)N[C@@H](CO)C(=O)N[C@@H](CCC(N)=O)C(=O)N[C@@H](CC(N)=O)C(=O)N[C@@H](CCC(N)=O)C(=O)N[C@@H](CCC(N)=O)C(=O)N[C@@H](CCC(=O)O)C(=O)N[C@@H](CCCCN)C(=O)N[C@@H](CC(N)=O)C(=O)N[C@@H](CCC(=O)O)C(=O)N[C@@H](CCC(N)=O)C(=O)N[C@@H](CCC(=O)O)C(=O)N[C@@H](CC(C)C)C(=O)N[C@@H](CC(C)C)C(=O)NCC(=O)N[C@@H](CO)C(=O)NCC(=O)N[C@@H](CSCC(=O)NCCOCCOCCOCCOCCC(=O)O[C@H]1CC[C@@]2(C)C(=CC[C@H]3[C@@H]4CC[C@H]([C@H](C)CCCC(C)C)[C@@]4(C)CC[C@@H]32)C1)C(N)=O` [C34-PEG4-Chol] the “Individuals with grade 3 ISR among those administered active drug” value (HIV-positive men; 3 men received active drug (10 mg, 10 mg, 20 mg), subcutaneous) was 2 out of 3, the ISR grade (HIV-positive men; single subcutaneous 10 mg dose) was “grade 3” and the ISR grade (HIV-positive men; single subcutaneous 20 mg dose) was “grade 3”. For the same compound, the “Systemic clinical or laboratory toxicities” value (HIV-positive men; single subcutaneous 10 or 20 mg, 84 days follow up) was “No systemic toxicities were observed; also recorded: No systemic clinical toxicities or laboratory defined toxicities were observed”, the Tolerability (dogs; 6 and 12 mg/kg, 14 days) was “well tolerated” and the Injection site findings (dogs; also seen in controls, greater severity with the peptide) was “some subcutaneous inflammation at the injection sites; also recorded: mild and reversible”. For the same compound, the “Injection site reactions (ISRs)” value (mice) was “had not been observed”, the Tolerability (mice; up to 12 mg/kg/day for 14 days) was “well tolerated” and the NOAEL at 336 h [1] was 12 mg/kg/day. It also gave a half-life [2, 3] of 48 h, a Cmax ([2]; human, in vivo, 10 mg, participant 1, single SC 10 mg, plasma) of 0.417 µg/mL and a Tmax [2, 3] of 2 h. It also gave a Vd [2, 3] of 24 L, a half-life [2, 4] of 54 h and a Cmax ([2]; human, in vivo, 10 mg, participant 3, single SC 10 mg, plasma) of 0.278 µg/mL. It also gave a Tmax [2, 4] of 6 h, a Vd [2, 4] of 39.5 L and a half-life [2, 5] of 46 h. It also gave a Cmax ([2]; human, in vivo, 20 mg, participant 5, single SC 20 mg, plasma) of 1.03 µg/mL, a Tmax [2, 5] of 2 h and a Vd [2, 5] of 19.5 L. The AUC ([2]; human, in vivo, participant 3, single SC 10 mg, linear trapezoidal, read-out: Area under plasma-concentration-time-curve) was 0.2 µg·h/mL, the level at 72 h ([2]; human, plasma, two subjects, single SC 10 mg, above the LLOQ, read-out: Plasma concentration at 72 hours) was > 0.062 µg/mL and the Area under plasma-concentration-time-curve ([2]; participant 5, single SC 20 mg, linear trapezoidal) was 506. For the same compound, the “Time-to-MEC (time plasma concentrations remained above the minimum effective concentration)” value ([2]; single SC 10 mg) was 72 h, the “Time-to-MEC (time plasma concentrations remained above the minimum effective concentration)” value ([2]; single SC 20 mg) was 96 h and the “Half-life, range over the three participants” value ([2]; single SC 10, 10 and 20 mg) was 46 to 54 h.
